Test results taken from PubChem BioAssay (NCI).
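48-hour exposure; five concentrations; linearly interpolated endpoints. TGI is the concentration that stops growth completely.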

Assays:
Test in all cases: NCI anticancer screen, dose series, 48 h
NCI-H522 lung = tested on: NCI-H522 lung
HL-60(TB) leukemia = tested on: HL-60(TB) leukemia
DMS 273 small cell lung = tested on: DMS 273 small cell lung
OVCAR-8 ovarian = tested on: OVCAR-8 ovarian
OVCAR-5 ovarian = tested on: OVCAR-5 ovarian
SNB-75 CNS = tested on: SNB-75 CNS
CAKI-1 renal = tested on: CAKI-1 renal
COLO 205 colon = tested on: COLO 205 colon
SF-268 CNS = tested on: SF-268 CNS
RXF 393 renal = tested on: RXF 393 renal
LOX IMVI melanoma = tested on: LOX IMVI melanoma
SK-MEL-5 melanoma = tested on: SK-MEL-5 melanoma
RPMI-8226 leukemia = tested on: RPMI-8226 leukemia
LXFL 529 NSCLC = tested on: LXFL 529 NSCLC
SK-MEL-28 melanoma = tested on: SK-MEL-28 melanoma
KM12 colon = tested on: KM12 colon
A549 NSCLC = tested on: A549 NSCLC
MOLT-4 leukemia = tested on: MOLT-4 leukemia
IGROV1 ovarian = tested on: IGROV1 ovarian
ACHN renal = tested on: ACHN renal
UACC-62 melanoma = tested on: UACC-62 melanoma
UACC-257 melanoma = tested on: UACC-257 melanoma
CCRF-CEM leukemia = tested on: CCRF-CEM leukemia
HOP-62 NSCLC = tested on: HOP-62 NSCLC
SF-295 CNS = tested on: SF-295 CNS
SW-620 colon = tested on: SW-620 colon
M14 melanoma = tested on: M14 melanoma
786-0 renal = tested on: 786-0 renal
SN12C renal = tested on: SN12C renal
SR leukemia = tested on: SR leukemia
U251 CNS = tested on: U251 CNS
HOP-92 NSCLC = tested on: HOP-92 NSCLC
HT29 colon = tested on: HT29 colon
HCT-15 colon = tested on: HCT-15 colon
M19-MEL melanoma = tested on: M19-MEL melanoma
NCI-H23 lung = tested on: NCI-H23 lung
SK-OV-3 ovarian = tested on: SK-OV-3 ovarian
UO-31 renal = tested on: UO-31 renal
NCI-H226 lung = tested on: NCI-H226 lung
OVCAR-4 ovarian = tested on: OVCAR-4 ovarian
SK-MEL-2 melanoma = tested on: SK-MEL-2 melanoma
HCT-116 colon = tested on: HCT-116 colon
SF-539 CNS = tested on: SF-539 CNS
HOP-18 NSCLC = tested on: HOP-18 NSCLC
DLD-1 colon = tested on: DLD-1 colon
MALME-3M melanoma = tested on: MALME-3M melanoma
NCI-H460 lung = tested on: NCI-H460 lung
K-562 leukemia = tested on: K-562 leukemia
TK-10 renal = tested on: TK-10 renal
SNB-19 CNS = tested on: SNB-19 CNS
KM20L2 colon = tested on: KM20L2 colon
HCC-2998 colon = tested on: HCC-2998 colon
DMS 114 small cell lung = tested on: DMS 114 small cell lung
EKVX NSCLC = tested on: EKVX NSCLC
A498 renal = tested on: A498 renal
OVCAR-3 ovarian = tested on: OVCAR-3 ovarian
XF 498 CNS = tested on: XF 498 CNS
SNB-78 CNS = tested on: SNB-78 CNS

Cc1ccc(Cl)c2c(=O)cc(-c3ccccc3)[nH]c12
TGI (NCI-H522 lung): > 100 µM
TGI (HL-60(TB) leukemia): > 100 µM
TGI (DMS 273 small cell lung): > 100 µM
TGI (OVCAR-8 ovarian): > 100 µM
TGI (OVCAR-5 ovarian): > 100 µM
TGI (SNB-75 CNS): 87.1 µM
TGI (CAKI-1 renal): > 100 µM
TGI (COLO 205 colon): > 100 µM
TGI (SF-268 CNS): > 100 µM
TGI (RXF 393 renal): > 100 µM
TGI (LOX IMVI melanoma): > 100 µM
TGI (SK-MEL-5 melanoma): > 100 µM
TGI (RPMI-8226 leukemia): > 100 µM
TGI (LXFL 529 NSCLC): > 100 µM
TGI (SK-MEL-28 melanoma): > 100 µM
TGI (KM12 colon): > 100 µM
TGI (A549 NSCLC): > 100 µM
TGI (MOLT-4 leukemia): > 100 µM
TGI (IGROV1 ovarian): > 100 µM
TGI (ACHN renal): > 100 µM
TGI (UACC-62 melanoma): > 100 µM
TGI (UACC-257 melanoma): > 100 µM
TGI (CCRF-CEM leukemia): > 100 µM
TGI (HOP-62 NSCLC): > 100 µM
TGI (SF-295 CNS): > 100 µM
TGI (SW-620 colon): > 100 µM
TGI (M14 melanoma): > 100 µM
TGI (786-0 renal): > 100 µM
TGI (SN12C renal): > 100 µM
TGI (SR leukemia): > 100 µM
TGI (U251 CNS): > 100 µM
TGI (HOP-92 NSCLC): > 100 µM
TGI (HT29 colon): > 100 µM
TGI (HCT-15 colon): > 100 µM
TGI (M19-MEL melanoma): > 100 µM
TGI (NCI-H23 lung): > 100 µM
TGI (SK-OV-3 ovarian): > 100 µM
TGI (UO-31 renal): > 100 µM
TGI (NCI-H226 lung): > 100 µM
TGI (OVCAR-4 ovarian): > 100 µM
TGI (SK-MEL-2 melanoma): > 100 µM
TGI (HCT-116 colon): > 100 µM
TGI (SF-539 CNS): > 100 µM
TGI (HOP-18 NSCLC): > 100 µM
TGI (DLD-1 colon): > 100 µM
TGI (MALME-3M melanoma): > 100 µM
TGI (NCI-H460 lung): > 100 µM
TGI (K-562 leukemia): > 100 µM
TGI (TK-10 renal): > 100 µM

COc1ccc(C=C2C(=O)OC(C)(C)OC2=O)cc1OC
TGI (NCI-H522 lung): > 100 µM
TGI (SNB-19 CNS): > 100 µM
TGI (OVCAR-8 ovarian): > 100 µM
TGI (OVCAR-5 ovarian): > 100 µM
TGI (SNB-75 CNS): > 100 µM
TGI (KM20L2 colon): > 100 µM
TGI (CAKI-1 renal): > 100 µM
TGI (COLO 205 colon): > 100 µM
TGI (SF-268 CNS): > 100 µM
TGI (SK-MEL-5 melanoma): > 100 µM
TGI (HCC-2998 colon): > 100 µM
TGI (RPMI-8226 leukemia): > 100 µM
TGI (LXFL 529 NSCLC): > 100 µM
TGI (SK-MEL-28 melanoma): > 100 µM
TGI (KM12 colon): > 100 µM
TGI (A549 NSCLC): > 100 µM
TGI (MOLT-4 leukemia): > 100 µM
TGI (DMS 114 small cell lung): > 100 µM
TGI (EKVX NSCLC): > 100 µM
TGI (A498 renal): > 100 µM
TGI (IGROV1 ovarian): > 100 µM
TGI (OVCAR-3 ovarian): > 100 µM
TGI (ACHN renal): > 100 µM
TGI (UACC-62 melanoma): > 100 µM
TGI (UACC-257 melanoma): > 100 µM
TGI (CCRF-CEM leukemia): > 100 µM
TGI (HOP-62 NSCLC): > 100 µM
TGI (SF-295 CNS): > 100 µM
TGI (SW-620 colon): > 100 µM
TGI (M14 melanoma): > 100 µM
TGI (786-0 renal): > 100 µM
TGI (SN12C renal): > 100 µM
TGI (U251 CNS): > 100 µM
TGI (HT29 colon): > 100 µM
TGI (HCT-15 colon): > 100 µM
TGI (XF 498 CNS): > 100 µM
TGI (M19-MEL melanoma): > 100 µM
TGI (NCI-H23 lung): > 100 µM
TGI (SK-OV-3 ovarian): > 100 µM
TGI (UO-31 renal): > 100 µM
TGI (OVCAR-4 ovarian): > 100 µM
TGI (SK-MEL-2 melanoma): > 100 µM
TGI (DLD-1 colon): > 100 µM
TGI (MALME-3M melanoma): > 100 µM
TGI (NCI-H460 lung): > 100 µM
TGI (SNB-78 CNS): > 100 µM
TGI (K-562 leukemia): > 100 µM
TGI (TK-10 renal): > 100 µM
